Active and inactive are the calls of the source.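 How the source made its calls: active means IC50 at or below 10 µM; inactive means IC50 above 10 µM.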

In the assay the target is tRNA 2'-phosphotransferase Tpt1 (Candida albicans SC5314). Description: Candida albicans TPT1 inhibitors, late-stage follow-up, biochemical, fluorescence polarization, dose response (AID 2838). Conditions: recombinant caTpt1, RNase T1-coupled fluorescence polarization.
For the compound `NC(=O)c1cc[n+](CC2=C(C(=O)O)N3C(=O)[C@@H](NC(=O)C(c4ccccc4)S(=O)(=O)O)[C@H]3SC2)cc1` (some centres undefined), the IC50 entry was “inactive”.
The value for `OC(Cn1cncn1)(Cn1cncn1)c1ccc(F)cc1F` was > 49.8 µM (inactive).
The figure for `NS(=O)(=O)c1cc(C(=O)NC2CCSc3ccccc32)ccc1Cl` (centres undefined) is > 49.8 µM (inactive); for `CC1=C(C#N)C(=O)N(C2CCS(=O)(=O)C2)C(=O)/C1=C\c1ccco1` (centres undefined) it is > 49.8 µM (inactive).

The values are drawn from PubChem BioAssay AID2838 (The Scripps Research Institute Molecular Screening Center, 2010).
